From patent publication US8318717B2, “Compounds modifying apoptosis” (2cureX, priority 2005, dated 2012)

Key:
[1] = tested on: human colorectal adenocarcinoma cell line HT-29; experiment: Xenograft study, HT-29 tumours in nude mice; assay type: in vivo, nude BALB/c mice
From the text: Female athymic nude BALB/c mice (BALB/cABom-Foxn1^nu, CA.Cg-Foxn1^nu) are obtained from Taconic Ltd, Ry, Denmark and maintained in the animal facility. Animals are approximately 6 weeks old with an initial body weight of 17-18 g when used for the experiments. The mice are housed in microisolators (filter top cages, Tecniplast, Buguggiata, Italy) under pathogen-free conditions with a 12-h light/12-h dark schedule and fed autoclaved standard chow (Altromin #1324, Lage, Germany) and water ad libitum throughout the experiment. All animals are handled under sterile conditions and maintained in a separate facility. The Danish Experimental Animal Inspectorate has approved the experimental protocol and all animal experiments are performed according to the ethical standards required by the UKCCCCR Guidelines {UKCCCR 1998}. During the study blood samples is taken one time per week. The number of animals per group (control-treatment) should be 8 animals at a minimum. Thirty-fifty percent more animals are inoculated with cells than needed in the study in order to be able to exclude animals in which there is no tumour take—i.e. the tumour fails to establish and grow progressively.
The human colorectal adenocarcinoma cell line HT-29 (HTB-38) has been obtained from the American Type Culture Collection (ATCC) Manassas, Va., USA. Tumour cells growing exponentially are harvested by brief incubation with 0.05% Trypsin-EDTA solution suspended in new medium for injection.
Tumour xenografts are initiated by subcutaneous (s.c.) injection of 10^7 cells into the left flank of nude mice. […]
Tumour volume, food consumption, body weight is measured twice a week. […] Evaluation of tumour growth: The tumours are measured every 3-4 day with a calliper. Baseline tumour weight are calculated by using the following formula mg=(L×W^2)/2 where L=length, W=width and these are perpendicular to each other {Teicher BA 1997}. […]
All data are expressed as the mean±SEM, and statistical analyses of the tumour data are performed using t-test. […]

[2] = biological target: T1, XIAP (Homo sapiens, UniProt P98170); experiment: Pull down of XIAP from cell lysates by compound-carrying beads (Western); assay type: binding
T1 construct: pull down one member of the IAP family, XIAP from cell lysates prepared from various tissues; endogenous in cells; host or cells: Hek293 cells, Hela cells, colon tissue (lysates)
T1 sequence (P98170 whole entry): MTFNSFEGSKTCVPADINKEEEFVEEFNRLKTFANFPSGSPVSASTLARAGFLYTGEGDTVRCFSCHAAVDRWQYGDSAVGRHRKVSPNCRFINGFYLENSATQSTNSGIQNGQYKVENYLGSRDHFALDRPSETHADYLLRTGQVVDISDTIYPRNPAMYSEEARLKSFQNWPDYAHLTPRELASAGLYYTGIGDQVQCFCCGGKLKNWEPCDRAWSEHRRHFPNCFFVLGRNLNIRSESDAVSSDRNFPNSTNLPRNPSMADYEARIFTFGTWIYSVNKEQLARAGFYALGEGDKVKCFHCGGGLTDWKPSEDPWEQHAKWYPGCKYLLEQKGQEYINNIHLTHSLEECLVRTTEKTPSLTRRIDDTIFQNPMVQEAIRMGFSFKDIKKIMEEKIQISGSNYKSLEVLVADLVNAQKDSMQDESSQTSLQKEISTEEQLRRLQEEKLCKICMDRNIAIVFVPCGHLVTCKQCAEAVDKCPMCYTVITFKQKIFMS
Protocol: Beads displaying compound 2CX2.201 or 2CX4.401 respectively are compared with regard to their ability to bind and pull down one member of the IAP family, XIAP from cell lysates prepared from various tissues.
• Positive control resin beads carrying a tetra-peptide (H-Ala-Val-Pro-Phe-Bead) mimicking the N-terminal part of Smac that binds to BIR3 domain of XIAP was prepared. The method of preparation was analogous to the general procedure described in example 2 with the change that only the four specific peptides were included in each of the four couplings and that the split and mix step was omitted. • Resin beads carrying 2CX2.201 was prepared as described above. • Resin beads carrying 2CX4.401 was prepared as described above. Lysate Preparation: • Hek293 and Hela: Cells are scraped off the plate in Phosphate Buffered Saline (PBS) at 4° C. • Colon tissue: Is blended into a homogeneous suspension in PBS at 4° C. • All cell suspensions are centrifuged for 10 min at 3000 rpm and supernatant is discarded. • Pellet is re-suspended in lysis buffer (50 mM Tris-HCL, 1 mM EGTA, 1 mM EDTA, 1% Triton-X W/W, 1 mM Sodium orthovanadate, 50 mM Sodium fluoride, 5 mM Sodium pyrophosphate, 1 mM MDTT, “Complete” (protease inh.) One tablet for 50 ml) • Incubate for 20 min at 4° C. • Centrifuge at 32.000 G for 30 min, 4° C. • Move supernatant to new vial (discard pellet) • Measure protein concentration Pull Down: • Bead/lysate ratio: 20 ul beads/10 mg lysate (equivalent to one pull down) • Beads are washed in 1 ml lysis buffer×2 • Lysate+beads are mixed and incubated for 1 hrs at 4° C., shaking • Beads are washed ×4 in 1 ml Lysis buffer w. […]

[3] = tested on: primary colon cancer cells from patients and colon cancer lines (i.e. HT29); experiment: Cell penetration, IAP inhibition and apoptosis in colon cancer cells; assay type: cell-based, human
[4] = Stability in serum from mice; assay type: in vitro ADME

- pull down of XIAP (FIG. 5b) ([2]; prolonged exposure time to increase sensitivity): weaker effect
- stability in serum [4]: high degree of stability
Compound: CN[C@@H](C)C(=O)N[C@H](C(=O)N1C[C@@H](NCC2CCCCC2)C[C@H]1C(=O)N[C@@H](Cc1ccccc1)C(N)=O)C(C)C [2CX4.401]
- effect on Paclitaxel efficacy (tumour weight) ([1]; combination with paclitaxel, 29 days after inoculation, FIG. 4): significantly potentiated the effect of Paclitaxel
- tumour weight relative to that observed with Paclitaxel alone ([1]; combined treatment: 2CX4.401 0.0625 mg/h osmotic pump + paclitaxel 25 mg/kg s.c. once a week, 29 days after inoculation): approx. 15%
- tumour growth in mono-therapy ([1]; mono-therapy, osmotic pump 0.0625 mg/h, 29 days): does not affect tumour growth
- affinity for XIAP, comparison of the two compounds ([2]; conclusion from pull down experiments): significant higher affinity than that of 2CX2.201
- pull down of XIAP (FIG. 5a) ([2]; lysates of Hek293, Hela, colon tissue, compound on beads): approximately the same degree as the endogenous AVPF peptide
- apoptosis [3]: promote apoptosis
- inhibition of IAPs [3]: inhibits IAPs
